Assay: xn = mol fraction of the nth substance listed
Conditions: Liquid, Vibrating tube method

CCCCCCCC [octane] + CCCO
mass density [kg/m3]
Conditions | 313.15 K | 323.15 K
100 kPa, x2 = 0.1631 | 693.18 | 684.56
100 kPa, x2 = 0.2111 | 695.76 | 687.03
100 kPa, x2 = 0.3158 | 701.99 | 693.22
100 kPa, x2 = 0.4411 | 711 | 702.44
100 kPa, x2 = 0.7301 | 740.14 | 731.25
100 kPa, x2 = 0.8823 | 763.46 | 754.72
1000 kPa, x2 = 0.1631 | 694.31 | –
1000 kPa, x2 = 0.4411 | 712.19 | –
1000 kPa, x2 = 0.8823 | – | 755.36
1010 kPa, x2 = 0.2111 | 696.95 | –
1010 kPa, x2 = 0.3158 | 703.21 | 694.15
1010 kPa, x2 = 0.4411 | – | 703
1010 kPa, x2 = 0.7301 | 741.33 | 732.1
1010 kPa, x2 = 0.8823 | 764.37 | –
1020 kPa, x2 = 0.1631 | – | 685.52
1020 kPa, x2 = 0.2111 | – | 688.02
2000 kPa, x2 = 0.4411 | – | 703.99
2000 kPa, x2 = 0.7301 | 742.25 | –
2010 kPa, x2 = 0.1631 | 695.26 | 686.54
2010 kPa, x2 = 0.2111 | 697.87 | 689.01
2010 kPa, x2 = 0.3158 | 704.14 | 695.16
2010 kPa, x2 = 0.4411 | 713.12 | –
2010 kPa, x2 = 0.7301 | – | 733.06
2010 kPa, x2 = 0.8823 | 765.24 | –
2020 kPa, x2 = 0.8823 | – | 756.3
3000 kPa, x2 = 0.2111 | 698.81 | –
3000 kPa, x2 = 0.4411 | 714.05 | 704.97
3000 kPa, x2 = 0.7301 | 743.18 | –
3010 kPa, x2 = 0.3158 | 705.04 | 696.14
3010 kPa, x2 = 0.7301 | – | 734.04
3010 kPa, x2 = 0.8823 | – | 757.26
3020 kPa, x2 = 0.1631 | 696.19 | 687.52
3020 kPa, x2 = 0.2111 | – | 690
3020 kPa, x2 = 0.8823 | 766.13 | –
4000 kPa, x2 = 0.2111 | 699.72 | –
4000 kPa, x2 = 0.4411 | 714.95 | –
4010 kPa, x2 = 0.3158 | 705.98 | –
4010 kPa, x2 = 0.7301 | 744.05 | 734.99
4010 kPa, x2 = 0.8823 | – | 758.2
4020 kPa, x2 = 0.1631 | 697.09 | 688.52
4020 kPa, x2 = 0.2111 | – | 691
4020 kPa, x2 = 0.3158 | – | 697.11
4020 kPa, x2 = 0.4411 | – | 705.97
4020 kPa, x2 = 0.8823 | 767 | –
5000 kPa, x2 = 0.1631 | 698.01 | –
5000 kPa, x2 = 0.3158 | 706.86 | –
5000 kPa, x2 = 0.8823 | 767.9 | –
5010 kPa, x2 = 0.1631 | – | 689.5
5010 kPa, x2 = 0.2111 | 700.64 | –
5010 kPa, x2 = 0.7301 | 744.95 | 735.97
5020 kPa, x2 = 0.2111 | – | 691.96
5020 kPa, x2 = 0.3158 | – | 698.1
5020 kPa, x2 = 0.4411 | 715.86 | 706.95
5020 kPa, x2 = 0.8823 | – | 759.13
6000 kPa, x2 = 0.7301 | – | 736.92
6010 kPa, x2 = 0.1631 | – | 690.43
6010 kPa, x2 = 0.2111 | 701.53 | 692.93
6010 kPa, x2 = 0.4411 | 716.76 | 707.91
6010 kPa, x2 = 0.7301 | 745.83 | –
6010 kPa, x2 = 0.8823 | 768.74 | 760.04
6020 kPa, x2 = 0.1631 | 698.89 | –
6020 kPa, x2 = 0.3158 | 707.76 | 699.06
7000 kPa, x2 = 0.1631 | – | 691.4
7000 kPa, x2 = 0.3158 | 708.66 | –
7010 kPa, x2 = 0.2111 | – | 693.87
7010 kPa, x2 = 0.4411 | – | 708.85
7010 kPa, x2 = 0.7301 | 746.74 | 737.85
7020 kPa, x2 = 0.1631 | 699.79 | –
7020 kPa, x2 = 0.2111 | 702.4 | –
7020 kPa, x2 = 0.3158 | – | 700.03
7020 kPa, x2 = 0.4411 | 717.65 | –
7020 kPa, x2 = 0.8823 | 769.63 | 760.95
8000 kPa, x2 = 0.1631 | 700.66 | 692.37
8010 kPa, x2 = 0.3158 | 709.55 | 700.95
8010 kPa, x2 = 0.4411 | 718.55 | 709.8
8010 kPa, x2 = 0.7301 | 747.6 | 738.79
8010 kPa, x2 = 0.8823 | 770.46 | 761.85
8020 kPa, x2 = 0.2111 | 703.3 | 694.84
9000 kPa, x2 = 0.3158 | 710.41 | –
9000 kPa, x2 = 0.4411 | 719.39 | –
9000 kPa, x2 = 0.7301 | 748.46 | 739.71
9010 kPa, x2 = 0.1631 | 701.54 | –
9010 kPa, x2 = 0.4411 | – | 710.74
9010 kPa, x2 = 0.8823 | – | 762.75
9020 kPa, x2 = 0.1631 | – | 693.29
9020 kPa, x2 = 0.2111 | 704.17 | 695.78
9020 kPa, x2 = 0.3158 | – | 701.92
9020 kPa, x2 = 0.8823 | 771.29 | –
10000 kPa, x2 = 0.1631 | – | 694.22
10000 kPa, x2 = 0.2111 | 705.02 | –
10000 kPa, x2 = 0.7301 | – | 740.61
10010 kPa, x2 = 0.1631 | 702.41 | –
10010 kPa, x2 = 0.2111 | – | 696.69
10010 kPa, x2 = 0.4411 | 720.29 | –
10010 kPa, x2 = 0.7301 | 749.32 | –
10020 kPa, x2 = 0.3158 | 711.31 | –
10020 kPa, x2 = 0.8823 | 772.16 | –
11000 kPa, x2 = 0.1631 | 703.29 | –
11000 kPa, x2 = 0.8823 | 772.97 | –
11010 kPa, x2 = 0.3158 | 712.17 | –
11010 kPa, x2 = 0.7301 | 750.16 | –
11020 kPa, x2 = 0.2111 | 705.91 | –
11020 kPa, x2 = 0.4411 | 721.14 | –
12010 kPa, x2 = 0.1631 | 704.11 | –
12010 kPa, x2 = 0.2111 | 706.77 | –
12010 kPa, x2 = 0.3158 | 712.99 | –
12010 kPa, x2 = 0.7301 | 751 | –
12020 kPa, x2 = 0.4411 | 722 | –
12020 kPa, x2 = 0.8823 | 773.81 | –
13000 kPa, x2 = 0.4411 | 722.85 | –
13000 kPa, x2 = 0.8823 | 774.61 | –
13010 kPa, x2 = 0.1631 | 704.97 | –
13010 kPa, x2 = 0.3158 | 713.85 | –
13010 kPa, x2 = 0.7301 | 751.83 | –
13020 kPa, x2 = 0.2111 | 707.6 | –
14010 kPa, x2 = 0.3158 | 714.67 | –
14020 kPa, x2 = 0.1631 | 705.8 | –
14020 kPa, x2 = 0.2111 | 708.41 | –
14020 kPa, x2 = 0.4411 | 723.68 | –
14020 kPa, x2 = 0.7301 | 752.64 | –
14020 kPa, x2 = 0.8823 | 775.41 | –
15000 kPa, x2 = 0.4411 | 724.48 | –
15010 kPa, x2 = 0.2111 | 709.26 | –
15010 kPa, x2 = 0.3158 | 715.49 | –
15010 kPa, x2 = 0.7301 | 753.46 | –
15010 kPa, x2 = 0.8823 | 776.2 | –
15020 kPa, x2 = 0.1631 | 706.63 | –
16000 kPa, x2 = 0.1631 | 707.41 | –
16010 kPa, x2 = 0.4411 | 725.31 | –
16010 kPa, x2 = 0.7301 | 754.27 | –
16010 kPa, x2 = 0.8823 | 776.98 | –
16020 kPa, x2 = 0.2111 | 710.08 | –
16020 kPa, x2 = 0.3158 | 716.32 | –
17000 kPa, x2 = 0.8823 | 777.78 | –
17020 kPa, x2 = 0.1631 | 708.23 | –
17020 kPa, x2 = 0.2111 | 710.85 | –
17020 kPa, x2 = 0.3158 | 717.13 | –
17020 kPa, x2 = 0.4411 | 726.11 | –
17020 kPa, x2 = 0.7301 | 755.05 | –
18000 kPa, x2 = 0.1631 | 709.02 | –
18000 kPa, x2 = 0.4411 | 726.91 | –
18010 kPa, x2 = 0.2111 | 711.64 | –
18010 kPa, x2 = 0.3158 | 717.91 | –
18010 kPa, x2 = 0.8823 | 778.53 | –
18020 kPa, x2 = 0.7301 | 755.85 | –
19000 kPa, x2 = 0.3158 | 718.69 | –
19000 kPa, x2 = 0.7301 | 756.62 | –
19010 kPa, x2 = 0.2111 | 712.43 | –
19010 kPa, x2 = 0.4411 | 727.68 | –
19010 kPa, x2 = 0.8823 | 779.29 | –
19020 kPa, x2 = 0.1631 | 709.81 | –
20000 kPa, x2 = 0.2111 | 713.22 | –
20000 kPa, x2 = 0.4411 | 728.45 | –
20010 kPa, x2 = 0.1631 | 710.59 | –
20010 kPa, x2 = 0.3158 | 719.47 | –
20010 kPa, x2 = 0.7301 | 757.39 | –
20020 kPa, x2 = 0.8823 | 780.06 | –
